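Dose response: 5 concentrations. Exposure: 48 h. Format: 96-well plates. Endpoint: linear interpolation; highest concentration if not reached. The concentration for full growth arrest is given as TGI.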
Tests used:
Assay in all cases: NCI tumour cell line growth inhibition, 48 h
A498 renal = system: A498 renal
A549 NSCLC = system: A549 NSCLC
CCRF-CEM leukemia = system: CCRF-CEM leukemia
COLO 205 colon = system: COLO 205 colon
DLD-1 colon = system: DLD-1 colon
DMS 114 small cell lung = system: DMS 114 small cell lung
DMS 273 small cell lung = system: DMS 273 small cell lung
EKVX NSCLC = system: EKVX NSCLC
HCC-2998 colon = system: HCC-2998 colon
HCT-116 colon = system: HCT-116 colon
HCT-15 colon = system: HCT-15 colon
HL-60(TB) leukemia = system: HL-60(TB) leukemia
HOP-18 NSCLC = system: HOP-18 NSCLC
HOP-62 NSCLC = system: HOP-62 NSCLC
HOP-92 NSCLC = system: HOP-92 NSCLC
HT29 colon = system: HT29 colon
IGROV1 ovarian = system: IGROV1 ovarian
K-562 leukemia = system: K-562 leukemia
KM12 colon = system: KM12 colon
KM20L2 colon = system: KM20L2 colon
LOX IMVI melanoma = system: LOX IMVI melanoma
M19-MEL melanoma = system: M19-MEL melanoma
MALME-3M melanoma = system: MALME-3M melanoma
MCF7 breast = system: MCF7 breast
MOLT-4 leukemia = system: MOLT-4 leukemia
NCI-H226 lung = system: NCI-H226 lung
NCI-H23 lung = system: NCI-H23 lung
NCI-H460 lung = system: NCI-H460 lung
NCI-H522 lung = system: NCI-H522 lung
NCI/ADR-RES ovarian = system: NCI/ADR-RES ovarian
OVCAR-3 ovarian = system: OVCAR-3 ovarian
OVCAR-4 ovarian = system: OVCAR-4 ovarian
OVCAR-5 ovarian = system: OVCAR-5 ovarian
OVCAR-8 ovarian = system: OVCAR-8 ovarian
P388 leukemia = system: P388 leukemia
P388/ADR leukemia = system: P388/ADR leukemia
RPMI-8226 leukemia = system: RPMI-8226 leukemia
RXF 393 renal = system: RXF 393 renal
SF-268 CNS = system: SF-268 CNS
SF-295 CNS = system: SF-295 CNS
SF-539 CNS = system: SF-539 CNS
SK-MEL-2 melanoma = system: SK-MEL-2 melanoma
SK-MEL-28 melanoma = system: SK-MEL-28 melanoma
SK-MEL-5 melanoma = system: SK-MEL-5 melanoma
SK-OV-3 ovarian = system: SK-OV-3 ovarian
SN12C renal = system: SN12C renal
SN12K1 renal = system: SN12K1 renal
SNB-19 CNS = system: SNB-19 CNS
SNB-75 CNS = system: SNB-75 CNS
SW-620 colon = system: SW-620 colon
U251 CNS = system: U251 CNS
UACC-257 melanoma = system: UACC-257 melanoma
UACC-62 melanoma = system: UACC-62 melanoma
UO-31 renal = system: UO-31 renal
XF 498 CNS = system: XF 498 CNS

Q: What does the source list for `NC1(C(=O)O)CCc2ccc(N(CCCl)CCCl)cc2C1` (stereo not given)?
A: TGI (A498 renal): > 100 µM; TGI (A549 NSCLC): > 100 µM; TGI (CCRF-CEM leukemia): > 100 µM; TGI (COLO 205 colon): > 100 µM; TGI (DLD-1 colon): > 100 µM; TGI (DMS 114 small cell lung): > 100 µM; TGI (DMS 273 small cell lung): > 100 µM; TGI (EKVX NSCLC): > 100 µM; TGI (HCC-2998 colon): > 100 µM; TGI (HCT-116 colon): 1.69 µM; TGI (HCT-15 colon): > 100 µM; TGI (HL-60(TB) leukemia): > 100 µM; TGI (HOP-18 NSCLC): > 100 µM; TGI (HOP-62 NSCLC): 63.5 µM; TGI (HOP-92 NSCLC): > 100 µM; TGI (HT29 colon): > 100 µM; TGI (IGROV1 ovarian): > 100 µM; TGI (K-562 leukemia): > 100 µM; TGI (KM12 colon): > 100 µM; TGI (KM20L2 colon): > 100 µM; TGI (LOX IMVI melanoma): > 100 µM; TGI (M19-MEL melanoma): > 100 µM; TGI (MALME-3M melanoma): 2.2 µM; TGI (MCF7 breast): > 100 µM; TGI (MOLT-4 leukemia): 87 µM; TGI (NCI-H226 lung): > 100 µM; TGI (NCI-H23 lung): > 100 µM; TGI (NCI-H460 lung): > 100 µM; TGI (NCI-H522 lung): 74.3 µM; TGI (NCI/ADR-RES ovarian): > 100 µM; TGI (OVCAR-3 ovarian): > 100 µM; TGI (OVCAR-4 ovarian): > 100 µM; TGI (OVCAR-5 ovarian): > 100 µM; TGI (OVCAR-8 ovarian): > 100 µM; TGI (P388 leukemia): 7.27 µM; TGI (P388/ADR leukemia): 35.1 µM; TGI (RPMI-8226 leukemia): > 100 µM; TGI (RXF 393 renal): > 100 µM; TGI (SF-268 CNS): 87 µM; TGI (SF-295 CNS): > 100 µM; TGI (SF-539 CNS): > 100 µM; TGI (SK-MEL-2 melanoma): > 100 µM; TGI (SK-MEL-28 melanoma): > 100 µM; TGI (SK-MEL-5 melanoma): > 100 µM; TGI (SK-OV-3 ovarian): > 100 µM; TGI (SN12C renal): > 100 µM; TGI (SN12K1 renal): > 100 µM; TGI (SNB-19 CNS): > 100 µM; TGI (SNB-75 CNS): > 100 µM; TGI (SW-620 colon): > 100 µM; TGI (U251 CNS): > 100 µM; TGI (UACC-257 melanoma): > 100 µM; TGI (UACC-62 melanoma): > 100 µM; TGI (UO-31 renal): > 100 µM; TGI (XF 498 CNS): > 100 µM
